Measurements as given in patent US20250161248A1, “Treating Chronic Myelomonocytic Leukemia with CXCL8 Receptor Inhibitors” (Institut Gustave Roussy, priority 2023, published 2025).
Entries after “also recorded” stand apart in the source; their conditions may differ.

How the values were obtained:
[1] = test system: neutrophil-dependent airway inflammation; conditions: mice; cited from earlier work
[2] = test system: wildtype CD34+ cells (cord blood, healthy donor bone marrow); experiment: CD34+ liquid culture, cell output/proliferation (healthy donor cells); assay type: cell-based, human; conditions: for proliferation of wildtype CD34+ cells in liquid culture: inhibitor 10 uM in combination with CXCL8 10 ng/mL, FIG. 12E
Experimental: (§1) Reagents, CXCR1/2 inhibitors Reparixin and Ladarixin were from MedChemTronica and Clinisciences, respectively, dissolved in dimethylsulfoxide (DMSO). Stem cell factor recombinant (SCF), interleukin-3 recombinant (IL-3), thrombopoietin recombinant (TPO), Fms-like tyrosine kinase 3 recombinant (FLT-3) and Interleukin 8 (IL-8 or CXCL8) were from Peprotech.
(§2) CD34^+ cultures, CD34^+ cells were cultured for 72 h at 1×10^5 cells/ml in complete MEM-alpha medium, SCF (50 ng/mL), IL-3 (10 ng/mL), TPO (10 ng/mL) and FLT-3 (50 ng/mL […]), to which CXCL8 was added in a 37° C. incubator with 5% CO2. Cells were counted after Trypan blue staining. For methylcellulose assays, CD34+ cells were plated in duplicate, at 500 cells with 1 mL complete methylcellulose (MethoCult™ H4034 Optimum, Stem cell) with indicated doses of CXCL8. Colonies were enumerated and phenotyped at day 14.

uveal melanoma = conditions: animal model of uveal melanoma; cited from earlier work
[3] = test system: pancreatic ductal adenocarcinoma (PDAC); conditions: cited from earlier work
[4] = test system: healthy donor CD34+ cells (cord blood, bone marrow); experiment: Methylcellulose colony formation assay (healthy donor cells); assay type: cell-based, human; conditions: for colony forming capacity of wildtype CD34+ cells (total colony output): inhibitor 10 mM (so in the source) in combination with CXCL8 10 ng/mL, FIG. 6F
Experimental: as §1, §2

CXCR1 and CXCR2 = conditions: CXCR1 over CXCR2; cited from earlier work
[5] = test system: thyroid cancer tumor cells; conditions: in vitro; cited from earlier work
[6] = test system: triple negative breast cancer; conditions: phase II, in combination with paclitaxel; cited from earlier work
[7] = test system: HER-2 negative metastatic breast cancer; conditions: phase I, in combination with paclitaxel chemotherapy; cited from earlier work
[8] = test system: ischemia-reperfusion injury; conditions: clinical studies; cited from earlier work
CMML CD34+ cells [9] = experiment: CD34+ liquid culture, cell output/proliferation (CMML cells); assay type: cell-based, human; conditions: liquid culture with CXCL8
Experimental: as §2

CMML CD34+ cells [10] = experiment: Methylcellulose colony formation assay (CMML cells); assay type: cell-based, human; conditions: methylcellulose with CXCL8
Experimental: as §2

Row | Compound | neutrophil-dependent airway inflammation [1] | proliferation of wildtype CD34+ cells in liquid culture [2] | TAM polarization (uveal melanoma) | tumor cell migration (uveal melanoma) | antitumor activity of combination ([3]; mouse PDAC model, ladarixin combined with an anti-PD-1 monoclonal antibody) | activity in PDAC model ([3]; mouse model, ladarixin) | colony forming capacity of wildtype CD34+ cells (total colony output) [4] | potency to inhibit CXCR1 activity relative to CXCR2 (CXCR1 and CXCR2) | direct anti-tumor activity, tumor cell proliferation [5] | clinical benefit compared to paclitaxel alone [6] | tolerability [7] | healthy donor CD34+ colony formation in presence of IGRAN supernatant ([4]; IGRAN supernatant plus reparixin 10 mM (so in the source), FIG. 6G) | neutrophil recruitment and inflammatory injury in ischemia-reperfusion [8] | CMML CD34+ cell proliferation (CMML CD34+ cells [9]) | cord blood CD34+ cell proliferation ([2]; liquid culture with indicated doses of CXCL8, FIG. 6A) | adult healthy donor bone marrow CD34+ cell proliferation ([2]; liquid culture, CXCL8 10 ng/mL, 72 hours, FIG. 12A, 12E) | CMML CD34+ cell proliferation in colony formation assays (CMML CD34+ cells [10]) | colony number / colony forming capacity of healthy cord blood or bone marrow CD34+ cells ([4]; 14 days, CXCL8, CFU-GM and CFU-E affected, FIG. 6B, 6F)
1 | C[C@@H](C(=O)NS(C)(=O)=O)c1ccc(OS(=O)(=O)C(F)(F)F)cc1 [ladarixin, 4-[(2 R)-1-oxo-1-(methanesulfonamido)propan-2-yl]phenyl trifluoromethanesulfonate] | improves neutrophil-dependent airway inflammation | restored | repolarized TAMs to a M1 phenotype | inhibited tumor cell migration | improved antitumor activity compared to either agent alone | significant activity | restored |  |  |  |  |  |  |  |  |  |  | 
2 | CC(C)Cc1ccc([C@@H](C)C(=O)NS(C)(=O)=O)cc1 [reparixin, R-(−)-2-(4-isobutylphenyl)propionyl methansulfonamide] |  | restored |  |  |  |  | restored | 400 fold | inhibiting tumor cell proliferation | no additional clinical benefit | well tolerated | blocked the inhibitory effects of this supernatant | effectively regulate neutrophil recruitment and attenuate inflammatory injury |  |  |  |  | 
3 | CXCL8: Interleukin 8 (IL-8 or CXCL8) chemokine from Peprotech, added to CD34+ cultures |  |  |  |  |  |  |  |  |  |  |  |  |  | failed to inhibit | dose-dependent inhibition | decreased | not affected | decrease in colony number; also recorded: decreased colony forming capacity
